Test results as given in US4985412A, “Phosphoric acid ester, process for preparing the same, and detergent composition containing the same” (Kao Corporation, priority 1987, dated 1991).

Experiments:
[1] = Krafft point; format: physicochemical
[2] = Foaming capability (Reverse Stirring Method); format: physicochemical; conditions: for Foaming capability (Foam volume): reverse stirring, 40 °C, 1,000 rpm, 30 sec (reversed at every 5 sec), measured after 10 sec
Description: * The conditions of the reverse stirring
Rotation speed: 1,000 rpm
Stirring time: 30 sec. (reversed at every 5 sec.)
Measurement: performed after the test sample was left for 10 sec.

[3] = comparison with sodium dodecyl phosphate, in words

SMILES | Krafft point [1] [°C] | Foaming capability (Foam volume) [2] [mL] | Krafft point compared with sodium dodecyl phosphate [1, 3] | Foaming capability compared with sodium dodecyl phosphate [2, 3]
CCCCCCCCCCCCOP(=O)(O)O [1-sodium dodecyl phosphate] | 32 | 260 | – | –
CCCCCCCCCCCCOP(=O)(O)OCC(O)CN(C)CC(=O)O (centres unmarked) [Example 1, sodium dodecyl 2-hydroxy-3-N-carboxymethyl-N-methylammoniopropyl phosphate] | < 0 | 250 | extremely lower Krafft point | almost the same foaming capability
CCCCCCCCCCCCOP(=O)([O-])OCC(O)CO.[Na+] (centres unmarked) [sodium dodecyl 2,3-dihydroxypropyl phosphate] | < 0 | 240 | – | –
